Test results: patent publication US9572862B2, “Methods for promoting lipolysis and oxidation in liver and adipose tissue using catestatin” (The Regents of the University of California, priority 2012, dated 2017)
“Also recorded” adds a separate entry of the source. No end group written: not given here.

Key:
[1] = test system: liver of Chga-KO mice; assay: Hepatic gene expression by real-time PCR after CST; format: in vivo; conditions: CST 12 days
Method: FIG. 4. Effects of CST on hepatic expression of genes involved in lipogenesis and fatty acid oxidation. Relative mRNA expression of genes involved in fatty acid oxidation in liver of WT and Chga-KO mice after treatment with saline or CST (5 μg/g BW, i.p./day) for 12 days: carnitine palmitoyltransferase 1a (Cpt1α) (A), peroxisome proliferator-activated receptor-alpha (Pparα) (B), acyl-CoA oxidase 1 (Acox1) (C) and uncoupling protein 2 (Ucp2) (D). (E) Relative expression of genes involved in lipogenesis in liver of Chga-KO mice after treatment with saline or CST (5 μg/g BW, i.p./day) for 12 days: sterol regulatory element-binding protein 1 (Srebp-1), peroxisome proliferator-activated receptor-gamma (Pparγ), glycerol-3-phosphate acyltransferase (Gpat4) and Cluster of Differentiation 36 (Cd36).
RNA was extracted using a kit (RNeasy Plus, Qiagen, Valencia, Calif.) according to the manufacturer's specifications. After DNase digestion, 100 ng of RNA was transcribed into cDNA in a 20-μl reaction using a High Capacity cDNA kit (Invitrogen, Carlsbad, Calif.), analyzed, and amplified. PCR was performed in a 25-μl reaction containing 5 μl of cDNA (one-fifth diluted), 2×SYBR Green PCR Master Mix, and the primers described in Table 1 (400 nM each). Differences in cycle threshold values (ΔCt) between target and the housekeeping gene GAPDH were used to calculate the levels of expression.

[2] = test system: 3T3-L1 adipocytes; assay: Leptin in adipocyte culture media after CST; format: cell-based; conditions: cultured 3T3-L1 adipocytes
Method: FIG. 1. Plasma parameters of wild-type (WT) and Chga-KO mice treated with saline or CST. (A) Plasma CST from saline or CST (5 μg/g BW, i.p./day) treated WT mice (28 week old) on normal chow (NCD) and high fat diet (60% fat for 16 weeks) as well as from Chga-KO mice (28 week old) on NCD. Body weights (B) and epididymal fat pad size normalized to body weight (C) in 28 week old WT and Chga-KO mice treated with saline or CST for 12 days. Plasma triglyceride (TG) (D), glycerol (E), non-esterified fatty acids (NEFA) (F), and leptin (G) in 28 week old WT and Chga-KO mice after treatment with saline or CST for 12 days. (H) Leptin in adipocyte culture media after treatment with saline or CST.
Mice were fasted for 12 hr prior to blood draw. Triglycerides (TG) and non-esterified fatty acids (NEFA) were assayed using kits from Wako Diagnostics (Richmond, Va.). Glycerol was assayed using a kit from Sigma (St Louis, Mo.). Media from the explant cultures and mouse serum were analysed for glycerol and NEFA as a measure of lipolysis. […]
Oxidation of radiolabeled palmitate in the homogenates of adipose tissue explants as described previously (45). […] Fatty acid oxidation in cells was determined by modifying a published method (46). […] The filter discs were counted to determine the amount of ^14CO2 absorbed in the papers. […]

[3] = test system: CST-KO mice; assay: Palmitate oxidation and hepatic gene expression in CST-KO mice; format: in vivo
Source text: FIG. 14. Palmitate oxidation. CST augmented palmitate oxidation in liver (A) and muscle (B) of both NCD- and 60% HFD-fed mice. Hepatic expression of genes involved in fatty acid oxidation such as Cpt1α(C), Acox (D) and Pparα (E). Augmented expression of these genes in Chga-KO mice indicates increased fatty acid oxidation in liver. In contrast, decreased expression in CST-KO mice indicates decreased fatty acid oxidation in liver, which was restored by supplementation with CST. Expression of lipogenic & gluconeogenic genes (F). Increased expression of Srebp1c in Chga-KO mice indicates increased lipogenesis. (G) Decreased expression of gluconeogenic gene Pepck in Chga-KO mice indicates inhibition of gluconeogenesis eventuating in increased sensitivity to insulin. In contrast, augmented expression of Pepck in CST-KO implicates increased gluconeogenesis eventuating in decreased sensitivity to insulin, which is normalized after CST supplementation. Figures in parentheses indicate number of animals.

[4] = test system: db/db mice; assay: CST treatment of diabetic db/db mice; format: in vivo
Source text: FIG. 15. […] Figures in parentheses indicate number of animals.

[5] = CST-KO mice, CST supplementation

SSMKLSFRARAYGFRGPGPQL [CST]
liver mRNA expression of Acox [1]: augmented | liver mRNA expression of Cd36 [1]: stimulated | liver mRNA expression of Cpt1α [1]: augmented | liver mRNA expression of Gpat4 [1]: stimulated | liver mRNA expression of Pparα [1]: augmented | liver mRNA expression of Pparγ [1]: no effect | liver mRNA expression of Srebp-1 [1]: no effect | liver mRNA expression of Ucp2 [1]: augmented | leptin production / release [2]: inhibited leptin production; also recorded: inhibited leptin release | palmitate oxidation in liver [3, 5]: stimulated; also recorded: augmented | palmitate oxidation in muscle [3, 5]: stimulated; also recorded: augmented | hepatic expression of Acox ([3]; liver of CST-KO mice): stimulated expression; also recorded: restored | hepatic expression of Cpt1α ([3]; liver of CST-KO mice): stimulated expression; also recorded: restored | hepatic expression of Pepck ([3]; liver of CST-KO mice): suppressed the expression; also recorded: normalized | hepatic expression of Pparα ([3]; liver of CST-KO mice): stimulated expression; also recorded: restored | hepatic expression of Srebp1c ([3]; liver of CST-KO mice): stimulated expression | glucose tolerance (GTT) ([4]; CST 10 μg/g/day for 14 days): improvement in glucose tolerance; also recorded: improved glucose tolerance | C-peptide level ([4]; CST 14 days): without lowering C-peptide levels; also recorded: No change in C-Peptide level | C-peptide/Insulin molar ratio ([4]; CST 14 days): increased; also recorded: higher C-Peptide/insulin molar ratio | plasma insulin level ([4]; CST 14 days (untreated db/db 20-30 nM)): 14 to 18 nM
